Test results published in patent US20250108036A1, “COMPOSITIONS FOR REMOVING SENESCENT CELLS AND USES THEREOF” (LIFECEUTIX CO., LTD., priority 2021, published 2025).

Assays:
IL6, CXCL1, CXCL10, IL1β [1] = assay: SASP mRNA qRT-PCR in doxorubicin-aged mice (Example 8-6); format: in vivo, C57BL6J mice; settings: doxorubicin 10 mg/kg i.p., untreated = 1
IL6 = assay: serum IL6 ELISA in doxorubicin-aged mice (Example 8-5); format: in vivo, C57BL6J mice; settings: mice, doxorubicin 10 mg/kg i.p., untreated = 1
Protocol: (§1) After adapting 8-week-old male C57BL6J mice (purchased from KRIBB Laboratory Animal Resource Center) to the experimental environment for 1 week, doxorubicin, an anticancer drug, was administered intraperitoneally at a concentration of 10 mg/kg, and mice that were induced to age for more than 10 days were assigned to an experimental group and a control group. LX-112 was mixed with 0.5% CMC-Na solution (purchased from Sigma) and administered orally at a concentration of 70 mg/kg daily for 21 days. The control group was administered only the solution in the same volume. After drug administration was completed, the method described in each Example below was performed.
The amount of IL6, an aging-related inflammation secretory factor (SASP), was measured in serum collected from mice in the same manner as in Example 7-5 using an enzyme-linked immunosorbent assay (ELISA Kit, purchased from R&D Systems).

SAOS-2 [2] = assay: CellTiter-Glo cell viability of senescent SAOS-2 cancer cells (Example 2-2); format: cell-based, human
Protocol: The standard for treating various cancers, including osteosarcoma, is repeated chemotherapy. Accordingly, aging was induced in SAOS-2 in the same manner as in Example 2-1, and then (i) treated again with doxorubicin (DOX→DOX) or (ii) treated with the LX-112 (5 μM) composition (DOX→LX-112).

AST, ALT = assay: serum AST and ALT in doxorubicin-aged mice (Example 8-8); format: in vivo, C57BL6J mice; settings: mice, doxorubicin 10 mg/kg i.p., untreated = 1
Protocol: as §1
In the same manner as in Example 7-5, the amounts of AST (aspartate aminotransferase) and ALT (alanine transaminase) released into the blood during liver damage were measured by spectrophotometry in the serum collected from mice using a kit (purchased from Sigma) according to the method described in the manual. […] Table 50 calculates the amount of each factor after aging was induced by treatment with the anticancer drug as 100% and compared it with the amount of each factor after treatment with LX-112.

p16, p21 = assay: p16 and p21 mRNA qRT-PCR in doxorubicin-aged mice (Example 8-2); format: in vivo, C57BL6J mice; settings: mice, doxorubicin 10 mg/kg i.p.; untreated = 1
Protocol: as §1
The mouse was sacrificed in the same manner as in Example 7-2, RNA was extracted from the organ tissue of each region, and qRT-PCR was performed and analyzed using the synthesized cDNA. […] Table 37 calculates the mRNA amounts of p16 and p21 after aging was induced by treatment with the anticancer drug as 100% and compared them with the mRNA amounts of p16 and p21 after treatment with LX-112.

SAOS-2 [3] = assay: SA-β-gal staining of doxorubicin-treated SAOS-2 cells (Example 2-1); format: cell-based, human; settings: doxorubicin-induced aging as in Example 1-1
SAOS-2 [4] = assay: senescent SAOS-2 tumor size in mice (Example 2-3); format: in vivo, BALB/c nude mice; settings: doxorubicin 10 mg/kg i.p.; after 10 days LX-112 100 mg/kg oral daily 21 days or repeated doxorubicin
Protocol: After 7-week-old male BALB/c nude mice (purchased from KRIBB Laboratory Animal Resource Center) were adapted to the experimental environment for one week, the mice were randomized into an experimental group and a control group. SAOS-2 (10^6 cells), a human osteosarcoma cancer cell line cultured in the same manner as Example 2-1, was mixed with PBS (purchased from Welgene) and then anesthetized using 2% isoflurane (purchased from Sigma). It was administered subcutaneously to mice. When the size of the tumor reached about […], doxorubicin was mixed at a concentration of 10 mg/kg in a 1:1 solution of distilled water and PBS (pH 7.2) and administered intraperitoneally to induce tumor aging. After 10 days, LX-112 mixed with 0.5% CMC-Na solution (purchased from Sigma) at a concentration of 100 mg/kg was orally administered daily for 21 days, and the size of the tumor was measured. The control group was repeatedly administered a solution mixed with doxorubicin, and then the size of the tumor was measured.

SA-β-gal = SA-β-gal staining of tissues of doxorubicin-aged mice (Example 8-3); format: in vivo, C57BL6J mice; settings: stained area; mice, doxorubicin 10 mg/kg i.p.; untreated = 1
Protocol: as §1
Mice were sacrificed in the same method in described in Example 7-3, and tissue sections were prepared from the organ tissues of each region. SA-β-gal, an aging marker was stained. […] FIG. 3 is a photographic result of staining of adipose tissue.

foreskin cells = assay: SA-β-gal staining of doxorubicin-treated foreskin cells (Example 1-1); format: cell-based, human; settings: proportion of SA-β-gal stained cells; doxorubicin 250 nM 24 h + 7 days
Protocol: Specifically, foreskin cells (source: Chungnam National University College of Medicine) derived from humans were cultured in a designated medium (Iscove's Modified Dulbecco's Medium, source: ATCC; 10% FBS, source: GenDEPOT; 100 U/ml Penicillin & Streptomycin, source: Invitrogen), then treated with doxorubicin (DOX) dissolved in dimethyl sulfoxide (DMSO) at a concentration of 250 nM for 24 hours, and further cultured for 7 days to induce aging. […] To measure the proportion of aged cells, cells treated with doxorubicin and the control group were inoculated into a 24 well plate and stabilized for 24 hours. Then SA-β-gal, a marker related to aging, was stained using a kit (purchased from Cell Signaling Technology), and the proportion of senescent cells having the stained SA-β-gal was measured using an optical microscope.

[5] = fatigue/weakness tests and body weight in doxorubicin-aged mice (Example 8-7); format: in vivo, C57BL6J mice; settings: mice
Protocol: as §1
In the same way as Example 7-7, in order to analyze fatigue and weakness that occur as a side effect due to treatment with anticancer drugs in mice, activity evaluation (open field test), endurance evaluation (wire hanging test), and muscle strength and grip strength test (grip strength test) were performed. […] In Table 47, the amount of each evaluation after aging was induced by treatment with the anticancer drug was calculated as 100% and compared it with the amount of each evaluation after treatment with LX-112.

IL6, CXCL1, CXCL10, IL1β [6] = assay: SASP mRNA qRT-PCR in doxorubicin-aged mice (Example 8-6); format: in vivo, C57BL6J mice; settings: mice, doxorubicin 10 mg/kg i.p.; untreated = 1
Protocol: as §1
Using cDNA synthesized in the same manner as Example 7-6, qRT-PCR was performed and analyzed for aging-related inflammation and fibrosis secretory factors (SASP) such as IL6, CXCL1, CXCL10, and IL1β. […] Table 45 calculates the mRNA amount of each factor after aging was induced by treatment with the anticancer drug as 100% and compared it with the mRNA amount of each factor after treatment with LX-112.

lipofuscin = lipofuscin staining of muscle of doxorubicin-aged mice (Example 8-4); format: in vivo, C57BL6J mice; settings: stained area; mice, doxorubicin 10 mg/kg i.p.; untreated = 1
Protocol: as §1
Mice were sacrificed in the same manner as in Example 7-4, and tissue sections were prepared from muscle tissue. Lipofuscin, an aging-related degenerative marker was stained.

[7] = Table 46, doxorubicin 10 mg/kg i.p.

COc1cccc2c1C(=O)c1c(O)c3c(c(O)c1C2=O)C[C@@](O)(C(=O)CO)C[C@@H]3O[C@H]1C[C@H](N)[C@H](O)[C@H](C)O1 [DOX, doxorubicin, reference compound]
mRNA (Fold) CXCL1, Liver (IL6, CXCL1, CXCL10, IL1β [1]): 3 (±0.9) Fold
mRNA (Fold) CXCL1, eWAT (IL6, CXCL1, CXCL10, IL1β [1]): 1.3 (±0.4)^ Fold
mRNA (Fold) CXCL10, eWAT (IL6, CXCL1, CXCL10, IL1β [1]): 3 (±1.2) Fold
mRNA (Fold) IL1β, Liver (IL6, CXCL1, CXCL10, IL1β [1]): 1.6 (±0.3) Fold
mRNA (Fold) IL1β, eWAT (IL6, CXCL1, CXCL10, IL1β [1]): 1.6 (±0.2) Fold
mRNA (Fold) IL6, Liver (IL6, CXCL1, CXCL10, IL1β [1]): 1.8 (±0.3) Fold
IL6 (Fold) (IL6): 11.7 (±0.5) Fold
Survival (%) (SAOS-2 [2]; DOX → DOX (senescent cells treated again with doxorubicin), 3 d): 72 (±7) %
Survival (%) (SAOS-2 [2]; DOX → DOX, 7 d): 55 (±5) %
ALT (Fold) (AST, ALT): 1.4 (±0.5) Fold
AST (Fold) (AST, ALT): 1.3 (±0.0) Fold
p16 mRNA (Fold) Kidney (p16, p21): 1.3 (±0.3) Fold
p16 mRNA (Fold) Liver (p16, p21): 2.6 (±0.8) Fold
p16 mRNA (Fold) eWAT (p16, p21): 3.2 (±1.2)^ Fold
p21 mRNA (Fold) Kidney (p16, p21): 2.6 (±2.1) Fold
p21 mRNA (Fold) Liver (p16, p21): 3.8 (±2.3) Fold
p21 mRNA (Fold) eWAT (p16, p21): 3.9 (±3) Fold
SA-β-gal (%) (SAOS-2 [3]): 66 (±5) %
Tumor Diameter (mm) (SAOS-2 [4]): 15.4 (±1.2) mm
SA-β-gal (Fold) Kidney (SA-β-gal): 4.1 (±1.5) Fold
SA-β-gal (Fold) Liver (SA-β-gal): 3.7 (±0.9) Fold
SA-β-gal (Fold) Lung (SA-β-gal): 1.3 (±0.4) Fold
SA-β-gal (Fold) eWAT (SA-β-gal): 4.2 (±0.9) Fold
SA-β-gal (%) (foreskin cells): 90 (±7) %
Grip Strength Test Strength (N) [5, 7]: 0.7 (±0.1) N
Open Field Test Time in Center (%) [5, 7]: 4.9 (±2.2) %
Wire Hanging Test Time (Sec) [5, 7]: 32 (±11) Sec
Mean Body Weight (g) ([5]; doxorubicin 10 mg/kg i.p. without or with LX-112 70 mg/kg oral daily 21 days): 21.3 (±2.6) g
mRNA (Fold) CXCL10, Liver (IL6, CXCL1, CXCL10, IL1β [6]): 2.6 (±0.9)^ Fold
mRNA (Fold) IL6, eWAT (IL6, CXCL1, CXCL10, IL1β [6]): 3.2 (±0.3) Fold
Lipofuscin (Fold) Muscle (lipofuscin): 2.2 (±0.5) Fold
